In PubChem BioAssay (NCI):
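The compound was tested at five concentrations on cells cultured in 96-well plates, with a 48-hour exposure period. GI50 marks 50% less growth. TGI: total growth inhibition.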

How the values were obtained:
Experiment in all cases: NCI-60 cell line screen, 48 h
NCI-H23 lung = tested on: NCI-H23 lung
LOX IMVI melanoma = tested on: LOX IMVI melanoma
A549 NSCLC = tested on: A549 NSCLC
MDA-MB-468 breast = tested on: MDA-MB-468 breast
T-47D breast = tested on: T-47D breast
M14 melanoma = tested on: M14 melanoma
MDA-MB-231 breast = tested on: MDA-MB-231 breast
HCT-15 colon = tested on: HCT-15 colon
OVCAR-5 ovarian = tested on: OVCAR-5 ovarian
786-0 renal = tested on: 786-0 renal
HOP-62 NSCLC = tested on: HOP-62 NSCLC
SN12C renal = tested on: SN12C renal
NCI-H460 lung = tested on: NCI-H460 lung
A498 renal = tested on: A498 renal
HS 578T breast = tested on: HS 578T breast
EKVX NSCLC = tested on: EKVX NSCLC
DU-145 prostate = tested on: DU-145 prostate
IGROV1 ovarian = tested on: IGROV1 ovarian
ACHN renal = tested on: ACHN renal
HCC-2998 colon = tested on: HCC-2998 colon
SK-MEL-5 melanoma = tested on: SK-MEL-5 melanoma
PC-3 prostate = tested on: PC-3 prostate
COLO 205 colon = tested on: COLO 205 colon
SF-539 CNS = tested on: SF-539 CNS
UACC-257 melanoma = tested on: UACC-257 melanoma
SK-OV-3 ovarian = tested on: SK-OV-3 ovarian
U251 CNS = tested on: U251 CNS
RXF 393 renal = tested on: RXF 393 renal
MDA-MB-435 = tested on: MDA-MB-435
NCI-H522 lung = tested on: NCI-H522 lung
HCT-116 colon = tested on: HCT-116 colon
HOP-92 NSCLC = tested on: HOP-92 NSCLC
BT-549 breast = tested on: BT-549 breast
MCF7 breast = tested on: MCF7 breast
CAKI-1 renal = tested on: CAKI-1 renal
SF-295 CNS = tested on: SF-295 CNS
SNB-75 CNS = tested on: SNB-75 CNS
NCI-H226 lung = tested on: NCI-H226 lung
NCI/ADR-RES ovarian = tested on: NCI/ADR-RES ovarian
SK-MEL-28 melanoma = tested on: SK-MEL-28 melanoma
OVCAR-8 ovarian = tested on: OVCAR-8 ovarian
MALME-3M melanoma = tested on: MALME-3M melanoma
SW-620 colon = tested on: SW-620 colon
UO-31 renal = tested on: UO-31 renal
TK-10 renal = tested on: TK-10 renal
SNB-19 CNS = tested on: SNB-19 CNS
UACC-62 melanoma = tested on: UACC-62 melanoma
SK-MEL-2 melanoma = tested on: SK-MEL-2 melanoma
OVCAR-3 ovarian = tested on: OVCAR-3 ovarian
OVCAR-4 ovarian = tested on: OVCAR-4 ovarian
HL-60(TB) leukemia = tested on: HL-60(TB) leukemia
SF-268 CNS = tested on: SF-268 CNS
RPMI-8226 leukemia = tested on: RPMI-8226 leukemia
MOLT-4 leukemia = tested on: MOLT-4 leukemia

O=C(CCl)Nc1ccc(C(=O)/C=C/c2cc3ccccc3nc2Cl)cc1
GI50 (NCI-H23 lung): 1.51 µM
TGI (NCI-H23 lung): 2.89 µM
GI50 (LOX IMVI melanoma): 0.221 µM
TGI (LOX IMVI melanoma): 0.626 µM
GI50 (A549 NSCLC): 1.78 µM
TGI (A549 NSCLC): 3.48 µM
GI50 (MDA-MB-468 breast): 1.47 µM
TGI (MDA-MB-468 breast): 2.92 µM
GI50 (T-47D breast): 1.8 µM
TGI (T-47D breast): 3.95 µM
GI50 (M14 melanoma): 1.57 µM
TGI (M14 melanoma): 3.04 µM
GI50 (MDA-MB-231 breast): 1.69 µM
TGI (MDA-MB-231 breast): 3.07 µM
GI50 (HCT-15 colon): 1.24 µM
TGI (HCT-15 colon): 2.61 µM
GI50 (OVCAR-5 ovarian): 1.8 µM
TGI (OVCAR-5 ovarian): 3.26 µM
GI50 (786-0 renal): 1.71 µM
TGI (786-0 renal): 3.13 µM
GI50 (HOP-62 NSCLC): 2.07 µM
TGI (HOP-62 NSCLC): 3.84 µM
GI50 (SN12C renal): 1.54 µM
TGI (SN12C renal): 2.89 µM
GI50 (NCI-H460 lung): 1.72 µM
TGI (NCI-H460 lung): 3.33 µM
GI50 (A498 renal): 12.7 µM
TGI (A498 renal): 25.6 µM
GI50 (HS 578T breast): 1.98 µM
TGI (HS 578T breast): 5.22 µM
GI50 (EKVX NSCLC): 1.82 µM
TGI (EKVX NSCLC): 3.52 µM
GI50 (DU-145 prostate): 1.76 µM
TGI (DU-145 prostate): 3.17 µM
GI50 (IGROV1 ovarian): 1.58 µM
TGI (IGROV1 ovarian): 3.16 µM
GI50 (ACHN renal): 1.72 µM
TGI (ACHN renal): 3.09 µM
GI50 (HCC-2998 colon): 1.58 µM
TGI (HCC-2998 colon): 2.96 µM
GI50 (SK-MEL-5 melanoma): 1.55 µM
TGI (SK-MEL-5 melanoma): 2.93 µM
GI50 (PC-3 prostate): 1.73 µM
TGI (PC-3 prostate): 3.47 µM
GI50 (COLO 205 colon): 1.75 µM
TGI (COLO 205 colon): 3.23 µM
GI50 (SF-539 CNS): 1.67 µM
TGI (SF-539 CNS): 3.03 µM
GI50 (UACC-257 melanoma): 1.62 µM
TGI (UACC-257 melanoma): 3.23 µM
GI50 (SK-OV-3 ovarian): 3.63 µM
TGI (SK-OV-3 ovarian): 12.1 µM
GI50 (U251 CNS): 1.11 µM
TGI (U251 CNS): 2.35 µM
GI50 (RXF 393 renal): 1.56 µM
TGI (RXF 393 renal): 2.98 µM
GI50 (MDA-MB-435): 1.12 µM
TGI (MDA-MB-435): 2.35 µM
GI50 (NCI-H522 lung): 1.55 µM
TGI (NCI-H522 lung): 3.02 µM
GI50 (HCT-116 colon): 0.175 µM
TGI (HCT-116 colon): 0.319 µM
GI50 (HOP-92 NSCLC): 1.89 µM
TGI (HOP-92 NSCLC): 3.83 µM
GI50 (BT-549 breast): 1.21 µM
TGI (BT-549 breast): 2.48 µM
GI50 (MCF7 breast): 0.294 µM
TGI (MCF7 breast): 1.43 µM
GI50 (CAKI-1 renal): 1.61 µM
TGI (CAKI-1 renal): 2.98 µM
GI50 (SF-295 CNS): 1.62 µM
TGI (SF-295 CNS): 3.07 µM
GI50 (SNB-75 CNS): 1.29 µM
TGI (SNB-75 CNS): 2.66 µM
GI50 (NCI-H226 lung): 1.9 µM
TGI (NCI-H226 lung): 4.82 µM
GI50 (NCI/ADR-RES ovarian): 2.16 µM
TGI (NCI/ADR-RES ovarian): 4.81 µM
GI50 (SK-MEL-28 melanoma): 1.88 µM
TGI (SK-MEL-28 melanoma): 3.66 µM
GI50 (OVCAR-8 ovarian): 1.89 µM
TGI (OVCAR-8 ovarian): 4.08 µM
GI50 (MALME-3M melanoma): 1.67 µM
TGI (MALME-3M melanoma): 3.22 µM
GI50 (SW-620 colon): 0.523 µM
TGI (SW-620 colon): 1.83 µM
GI50 (UO-31 renal): 1.41 µM
TGI (UO-31 renal): 2.71 µM
GI50 (TK-10 renal): 1.95 µM
TGI (TK-10 renal): 4.58 µM
GI50 (SNB-19 CNS): 1.66 µM
TGI (SNB-19 CNS): 3.13 µM
GI50 (UACC-62 melanoma): 1.53 µM
TGI (UACC-62 melanoma): 2.9 µM
GI50 (SK-MEL-2 melanoma): 2.14 µM
TGI (SK-MEL-2 melanoma): 5.67 µM

COc1cc2oc(-c3cccc(C(=O)Nc4cccc([N+](=O)[O-])c4)c3)cc(=O)c2c(OC)c1OC
GI50 (NCI-H23 lung): 22.5 µM
TGI (NCI-H23 lung): > 100 µM
GI50 (LOX IMVI melanoma): 5.73 µM
TGI (LOX IMVI melanoma): > 100 µM
GI50 (A549 NSCLC): 4.94 µM
TGI (A549 NSCLC): > 100 µM
GI50 (T-47D breast): 3.56 µM
TGI (T-47D breast): > 100 µM
GI50 (OVCAR-3 ovarian): 4.44 µM
TGI (OVCAR-3 ovarian): > 100 µM
GI50 (M14 melanoma): > 100 µM
TGI (M14 melanoma): > 100 µM
GI50 (MDA-MB-231 breast): 4.26 µM
TGI (MDA-MB-231 breast): > 100 µM
GI50 (HCT-15 colon): 5.25 µM
TGI (HCT-15 colon): > 100 µM
GI50 (OVCAR-5 ovarian): > 100 µM
TGI (OVCAR-5 ovarian): > 100 µM
GI50 (OVCAR-4 ovarian): 2.72 µM
TGI (OVCAR-4 ovarian): 9.09 µM
GI50 (786-0 renal): 3.68 µM
TGI (786-0 renal): 21.7 µM
GI50 (HOP-62 NSCLC): 6.31 µM
TGI (HOP-62 NSCLC): 33.6 µM
GI50 (SN12C renal): 3.36 µM
TGI (SN12C renal): > 100 µM
GI50 (NCI-H460 lung): 3.87 µM
TGI (NCI-H460 lung): > 100 µM
GI50 (A498 renal): 34.9 µM
TGI (A498 renal): > 100 µM
GI50 (HS 578T breast): 2.51 µM
TGI (HS 578T breast): 7.23 µM
GI50 (EKVX NSCLC): 7.32 µM
TGI (EKVX NSCLC): > 100 µM
GI50 (HL-60(TB) leukemia): > 100 µM
TGI (HL-60(TB) leukemia): > 100 µM
GI50 (DU-145 prostate): 4.77 µM
TGI (DU-145 prostate): > 100 µM
GI50 (IGROV1 ovarian): 7.99 µM
TGI (IGROV1 ovarian): > 100 µM
GI50 (ACHN renal): 3.22 µM
TGI (ACHN renal): > 100 µM
GI50 (SK-MEL-5 melanoma): 5.17 µM
TGI (SK-MEL-5 melanoma): > 100 µM
GI50 (PC-3 prostate): 3.55 µM
TGI (PC-3 prostate): > 100 µM
GI50 (COLO 205 colon): > 100 µM
TGI (COLO 205 colon): > 100 µM
GI50 (SF-539 CNS): 4.4 µM
TGI (SF-539 CNS): 41.7 µM
GI50 (SF-268 CNS): 3.49 µM
TGI (SF-268 CNS): > 100 µM
GI50 (SK-OV-3 ovarian): 4.26 µM
TGI (SK-OV-3 ovarian): > 100 µM
GI50 (U251 CNS): 6.69 µM
TGI (U251 CNS): > 100 µM
GI50 (RXF 393 renal): 2.28 µM
TGI (RXF 393 renal): 18.8 µM
GI50 (NCI-H522 lung): 3.14 µM
TGI (NCI-H522 lung): 23.2 µM
GI50 (HCT-116 colon): 3.57 µM
TGI (HCT-116 colon): > 100 µM
GI50 (HOP-92 NSCLC): 5.46 µM
TGI (HOP-92 NSCLC): 42.4 µM
GI50 (BT-549 breast): 2.46 µM
TGI (BT-549 breast): 8.09 µM
GI50 (MCF7 breast): 3.8 µM
TGI (MCF7 breast): > 100 µM
GI50 (CAKI-1 renal): 2.86 µM
TGI (CAKI-1 renal): 10.9 µM
GI50 (SF-295 CNS): 2.51 µM
TGI (SF-295 CNS): 6.9 µM
GI50 (SNB-75 CNS): 1.99 µM
TGI (SNB-75 CNS): 6.08 µM
GI50 (NCI-H226 lung): 2.29 µM
TGI (NCI-H226 lung): 7.38 µM
GI50 (RPMI-8226 leukemia): 2.88 µM
TGI (RPMI-8226 leukemia): > 100 µM
GI50 (MOLT-4 leukemia): > 100 µM
TGI (MOLT-4 leukemia): > 100 µM
GI50 (TK-10 renal): 11.5 µM
TGI (TK-10 renal): 60.8 µM
GI50 (SNB-19 CNS): 6.91 µM
TGI (SNB-19 CNS): 68.9 µM
GI50 (UACC-62 melanoma): 4.92 µM
TGI (UACC-62 melanoma): > 100 µM
GI50 (SK-MEL-2 melanoma): 11.9 µM
TGI (SK-MEL-2 melanoma): > 100 µM
